Here are results for five compounds from US12059422B2 (MEI Pharma, Inc., priority 2011, dated 2024).

A value given as a limit tells only on which side of the number the result lay.

One experiment has as its target T1, PI3K alpha (Homo sapiens, UniProt P42336).
T1 construct: purchased Invitrogen Corp., Carlsbad, CA, USA
The experiment can be described thus: Luciferase-based luminescence assay (KinaseGlo), PI3K alpha enzymatic activity. The format is biochemical. The note with it: inhibition of enzymatic activity, 25 μM ATP, read-out: IC50 p110α. The method, boiled down: (§1)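 KinaseGlo luminescence measured ATP remaining after PIP2 (50 μM) phosphorylation with 25 μM ATP in HEPES pH 7.5 buffer with CHAPS and DTT. Final enzyme was 1.65 nM alpha (1 h reaction) or 6.86 nM delta (2 h reaction). IC50 was curve-fitted from 10 concentrations.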
In general terms: Kinase-Glo reads ATP consumption through a luciferase reaction.

Another experiment addresses T2, PI3K delta (Homo sapiens, UniProt O00329).
T2 construct: purchased Millipore, Billerica, MA, USA
The experiment can be described thus: Luciferase-based luminescence assay (KinaseGlo), PI3K delta enzymatic activity. The format is biochemical. The note with it: for IC50: inhibition of enzymatic activity, KinaseGlo, 25 μM ATP, read-out: IC50 p110δ; for α/δ ratio: ratio of enzymatic IC50 against PI3Kα over IC50 against PI3Kδ; for β/δ ratio / γ/δ ratio: ratio of enzymatic IC50 values, Table 1. Put shortly: as §1

The next experiment has as its target T3, PI3Kδ (Homo sapiens, UniProt O00329).
T3 construct: endogenous in cells; host or cells: Raji (ATCC #CCL-86)
The experiment can be described thus: ELISA assay for PI3Kδ: sandwich ELISA, phosphorylation of AKT (Thr308) in Raji cells. Type of experiment: cell-based. The note with it: for IC50: cellular, pAKT (Thr308), Raji cells, anti-Human IgM stimulation, read-out: IC50 p110δ; for α/δ ratio / β/δ ratio / γ/δ ratio: ratio of cellular IC50 values, Table 2. Put shortly: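 Raji cells, serum-starved 2 hrs, treated with compound (10 concentrations) for 2 hrs at 37° C, then stimulated 30 min with anti-human IgM. Lysates analysed by sandwich ELISA for pAKT Thr308 and total AKT with luminescent read-out. IC50 from curve fitting.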

In another experiment the target is mTOR (Homo sapiens, UniProt P42345). The experiment can be described thus: mTOR inhibition (Table 1). Type of experiment: biochemical. The note with it: Table 1, no method described.

T2 sequence (O00329 whole entry, species assumed): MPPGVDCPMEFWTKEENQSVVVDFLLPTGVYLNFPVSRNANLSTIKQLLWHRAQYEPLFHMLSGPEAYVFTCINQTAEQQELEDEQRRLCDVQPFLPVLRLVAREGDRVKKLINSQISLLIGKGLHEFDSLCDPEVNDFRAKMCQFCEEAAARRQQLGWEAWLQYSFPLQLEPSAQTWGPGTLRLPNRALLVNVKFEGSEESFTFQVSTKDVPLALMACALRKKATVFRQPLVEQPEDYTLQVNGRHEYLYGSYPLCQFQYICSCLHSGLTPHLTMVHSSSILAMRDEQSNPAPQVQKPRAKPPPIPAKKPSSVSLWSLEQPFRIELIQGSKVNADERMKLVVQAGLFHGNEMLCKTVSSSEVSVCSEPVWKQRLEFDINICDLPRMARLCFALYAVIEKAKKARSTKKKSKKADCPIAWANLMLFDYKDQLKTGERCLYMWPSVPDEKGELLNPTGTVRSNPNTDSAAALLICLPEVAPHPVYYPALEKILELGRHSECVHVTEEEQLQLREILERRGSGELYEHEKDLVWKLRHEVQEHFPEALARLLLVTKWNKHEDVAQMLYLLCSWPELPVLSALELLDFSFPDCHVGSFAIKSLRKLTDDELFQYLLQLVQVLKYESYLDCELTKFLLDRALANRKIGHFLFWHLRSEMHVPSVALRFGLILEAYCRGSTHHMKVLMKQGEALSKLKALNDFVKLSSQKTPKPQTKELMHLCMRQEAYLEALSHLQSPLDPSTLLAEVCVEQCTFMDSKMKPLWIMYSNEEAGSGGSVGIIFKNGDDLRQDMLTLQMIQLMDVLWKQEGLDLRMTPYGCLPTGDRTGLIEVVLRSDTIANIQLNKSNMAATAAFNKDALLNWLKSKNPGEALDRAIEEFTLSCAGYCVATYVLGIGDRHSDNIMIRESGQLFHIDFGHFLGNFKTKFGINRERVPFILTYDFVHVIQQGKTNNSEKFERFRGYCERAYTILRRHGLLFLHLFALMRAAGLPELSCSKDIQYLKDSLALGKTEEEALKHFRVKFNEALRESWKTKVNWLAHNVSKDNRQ
T2 sequence (P27986 whole entry partner, species assumed): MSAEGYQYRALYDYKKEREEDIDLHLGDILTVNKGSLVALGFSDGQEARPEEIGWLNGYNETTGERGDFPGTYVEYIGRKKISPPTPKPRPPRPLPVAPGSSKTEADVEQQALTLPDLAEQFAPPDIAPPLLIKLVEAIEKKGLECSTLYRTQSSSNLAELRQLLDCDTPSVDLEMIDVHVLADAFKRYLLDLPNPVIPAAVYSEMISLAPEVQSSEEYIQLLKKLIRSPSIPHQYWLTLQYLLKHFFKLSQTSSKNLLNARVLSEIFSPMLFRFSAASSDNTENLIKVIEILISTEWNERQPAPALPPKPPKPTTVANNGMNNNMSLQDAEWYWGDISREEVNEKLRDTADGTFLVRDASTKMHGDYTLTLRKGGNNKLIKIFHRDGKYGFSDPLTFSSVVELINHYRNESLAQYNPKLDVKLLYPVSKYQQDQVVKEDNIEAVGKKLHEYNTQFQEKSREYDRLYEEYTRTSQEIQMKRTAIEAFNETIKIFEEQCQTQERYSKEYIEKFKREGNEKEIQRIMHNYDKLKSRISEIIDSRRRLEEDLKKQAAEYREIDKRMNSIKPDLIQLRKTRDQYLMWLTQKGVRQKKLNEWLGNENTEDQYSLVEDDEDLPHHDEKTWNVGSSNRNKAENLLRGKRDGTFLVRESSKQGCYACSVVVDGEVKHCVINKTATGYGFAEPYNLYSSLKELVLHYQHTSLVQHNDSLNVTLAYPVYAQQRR
T3 sequence (O00329 whole entry): as the sequence (O00329 whole entry, species assumed) above
T3 sequence (P27986 whole entry partner): as the sequence (P27986 whole entry partner, species assumed) above
T1 sequence (P42336 whole entry, species assumed): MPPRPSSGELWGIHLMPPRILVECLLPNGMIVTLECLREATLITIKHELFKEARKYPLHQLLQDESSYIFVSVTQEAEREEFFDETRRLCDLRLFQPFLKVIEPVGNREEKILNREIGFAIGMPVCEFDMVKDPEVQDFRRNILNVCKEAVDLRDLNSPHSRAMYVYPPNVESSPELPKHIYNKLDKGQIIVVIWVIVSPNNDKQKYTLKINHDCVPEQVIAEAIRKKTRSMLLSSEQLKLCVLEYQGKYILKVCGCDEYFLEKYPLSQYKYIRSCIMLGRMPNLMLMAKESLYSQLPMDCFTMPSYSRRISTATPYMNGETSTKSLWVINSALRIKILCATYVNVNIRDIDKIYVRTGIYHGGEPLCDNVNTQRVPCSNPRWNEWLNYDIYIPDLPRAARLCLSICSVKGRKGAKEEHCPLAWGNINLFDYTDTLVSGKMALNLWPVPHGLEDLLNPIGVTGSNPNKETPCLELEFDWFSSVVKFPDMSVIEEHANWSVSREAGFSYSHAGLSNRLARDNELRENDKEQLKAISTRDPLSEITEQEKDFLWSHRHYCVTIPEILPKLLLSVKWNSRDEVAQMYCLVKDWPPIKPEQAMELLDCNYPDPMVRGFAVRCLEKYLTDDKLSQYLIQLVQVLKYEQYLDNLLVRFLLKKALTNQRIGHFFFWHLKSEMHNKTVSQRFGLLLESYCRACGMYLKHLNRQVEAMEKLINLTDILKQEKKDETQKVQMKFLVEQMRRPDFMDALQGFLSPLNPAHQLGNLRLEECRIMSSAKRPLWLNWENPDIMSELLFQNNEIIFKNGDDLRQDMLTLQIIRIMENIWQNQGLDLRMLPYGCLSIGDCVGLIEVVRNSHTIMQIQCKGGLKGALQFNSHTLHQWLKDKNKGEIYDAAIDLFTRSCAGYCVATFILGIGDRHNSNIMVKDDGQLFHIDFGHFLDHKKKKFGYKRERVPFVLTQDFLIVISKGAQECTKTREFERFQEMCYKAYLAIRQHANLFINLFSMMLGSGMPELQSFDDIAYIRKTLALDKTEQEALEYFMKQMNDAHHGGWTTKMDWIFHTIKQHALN
T1 sequence (P27986 whole entry partner, species assumed): as the sequence (P27986 whole entry partner, species assumed) above

The term IC50 denotes the concentration that gives 50% inhibition. Regarding `CC(C)N1CCC(c2ccccc2CC(C)(C)Nc2nc(N3CCOCC3)nc(-n3c(C(F)F)nc4ccccc43)n2)CC1` [Compound A71, 4-(2-(difluoromethyl)-1H-benzo[d]imidazol-1-yl)-N-(1-(2-(1-isopropylpiperidin-4-yl)phenyl)-2-methylpropan-2-yl)-6-morpholino-1,3,5-triazin-2-amine], the IC50 was over 500 nM at PI3K alpha, at most 100 nM on PI3K delta, at most 100 nM on PI3Kδ and over 500 nM at mTOR. The α/δ ratio result on PI3K delta and at PI3Kδ was “A’” throughout. Also, the β/δ ratio result on PI3K delta and on PI3Kδ was “A’” in each case. Moreover, the γ/δ ratio result at PI3K delta and at PI3Kδ was “A’” in each case.
Regarding `CC(=O)N1CCC(c2ccccc2CC(C)(C)Nc2nc(N3CCOCC3)nc(-n3c(C(F)F)nc4ccccc43)n2)CC1` [Compound A72, 4-(2-(difluoromethyl)-1H-benzo[d]imidazol-1-yl)-N-(2-methyl-1-(2-(1-acetylpiperidin-4-yl)phenyl)propan-2-yl)-6-morpholino-1,3,5-triazin-2-amine], the IC50 on PI3K alpha fell in the range of 100 to 200 nM. On PI3K delta, the IC50 is at most 100 nM, the α/δ ratio entry was “A’”, the β/δ ratio entry was “D’” and the γ/δ ratio entry is listed as “C’”. On PI3Kδ, the IC50 is at most 100 nM, the α/δ ratio entry is “A’”, the β/δ ratio result is given as “A’” and the γ/δ ratio entry is “A’”. At mTOR, this compound displayed an IC50 of over 500 nM.
`CC(C)(Cc1ccccc1C1CCN(S(C)(=O)=O)CC1)Nc1nc(N2CCOCC2)nc(-n2c(C(F)F)nc3ccccc32)n1` [Compound A73, 4-(2-(difluoromethyl)-1H-benzo[d]imidazol-1-yl)-N-(2-methyl-1-(2-(1-(methylsulfonyl)piperidin-4-yl)phenyl)propan-2-yl)-6-morpholino-1,3,5-triazin-2-amine]: the IC50 on PI3K alpha lay within 200 to 500 nM. On PI3K delta, the IC50 was at most 100 nM, the α/δ ratio result is recorded as “A’”, the β/δ ratio entry is “D’” and the γ/δ ratio result is on record as “B’”. At PI3Kδ, the IC50 is at most 100 nM, the α/δ ratio result was “A’”, the β/δ ratio result is reported as “C’” and the γ/δ ratio entry is reported as “A’”. For the same compound, the IC50 on mTOR is over 500 nM.
For `CC(C)(Cc1ccccc1C1CCNC1)Nc1nc(N2CCOCC2)nc(-n2c(C(F)F)nc3ccccc32)n1` (centres unmarked) [Compound A74, 4-(2-(difluoromethyl)-1H-benzo[d]imidazol-1-yl)-N-(2-methyl-1-(2-(pyrrolidin-3-yl)phenyl)propan-2-yl)-6-morpholino-1,3,5-triazin-2-amine], the IC50 on PI3K alpha was over 500 nM; at PI3K delta it was at most 100 nM; at PI3Kδ, at most 100 nM; on mTOR, over 500 nM. Moreover, the α/δ ratio entry on PI3K delta and at PI3Kδ was “A’” in each case. Besides, the values for the β/δ ratio entry at PI3K delta and at PI3Kδ were “A’” and “C’”, respectively. Further, the γ/δ ratio entry at PI3K delta and at PI3Kδ was “A’” in each case.
Take `CN(C)CCCc1ccccc1CC(C)(C)Nc1nc(N2CCOCC2)nc(-n2c(C(F)F)nc3ccccc32)n1` [Compound A76, 4-(2-(difluoromethyl)-1H-benzo[d]imidazol-1-yl)-N-(1-(2-(3-(dimethylamino)propyl)phenyl)-2-methylpropan-2-yl)-6-morpholino-1,3,5-triazin-2-amine]: the IC50 on PI3K alpha is over 500 nM; on PI3K delta it was at most 100 nM; at PI3Kδ, at most 100 nM; against mTOR, over 500 nM. The α/δ ratio entry on PI3K delta and on PI3Kδ was “A’” each time. Also, the β/δ ratio entry at PI3K delta and at PI3Kδ was “A’” throughout. Besides, the γ/δ ratio entry on PI3K delta and on PI3Kδ was “A’” each time.
